Starred links: 1 amine or outer side, 2 acyl side, 3 side chain; linkers in the order of their positions; H or OH if unused. Positions of bridges follow the written chain, without caps; N, C: chain ends. Non-standard residues stand in square brackets, D forms with d. Residues, ends and D or L forms follow the SMILES beside them. *: point of attachment. X2 = C[C@H]1CC[C@@H](N2CCN(c3ccc(-c4nnc(-c5ccc(C(=O)*)cc5)s4)cc3)CC2)CC1; hTyr(3R-OH,3'-OSO3H) = N[C@H](C(=O)O)[C@H](O)Cc1ccc(O)c(OS(=O)(=O)O)c1; X3 = COCCCCCOC1CCN(c2ccc(-c3nn4cc(-c5ccc(C(=O)*)cc5)nc4s3)cc2)CC1; Orn(3R-OH,Nδ-CH(CH2OH)2) = N[C@H](C(=O)O)[C@H](O)CCNC(CO)CO; X4 = COCCCCOc1ccc(-c2nn3cc(-c4ccc(C(=O)*)cc4)nc3s2)cc1; Orn(4R-OH) = O=C([C@H](C[C@@H](O)CN[*:3])N[*:1])[*:2]; X1 = COCCCCCCOc1ccc(-c2cc(-c3ccc(C(=O)*)cc3)no2)cc1; Pro(3S-OH,4S-Me) = C[C@H]1CN[C@H](C(=O)O)[C@H]1O; Hyp = O=C(O)[C@@H]1C[C@@H](O)CN1
Tested on: Candida albicans FP-633
Type: cell-based
Conditions: FP-633, 24 h, pH 7.3
Protocol: In vitro antimicrobial activity of the object compound of Examples 4, 9, 25 and 30 disclosed later was determined by MICs in mouse serum as described below. The MICs in mouse serum were determined by the microdilution method using ICR mouse serum buffered with 20 mM HEPES buffer (pH 7.3) as a test medium. Inoculum suspension of 10^6 cells/ml were prepared by a hemocytometric procedure and diluted to obtain an inoculum size of approximately 1.0×10^3 cells/ml. Microplates were incubated at 37° C. for 24 hours in 5% CO2. The MICs were defined as the lowest concentrations at which no visible growth was observed.

`COCCCCCOC1CCN(c2ccc(-c3nn4cc(-c5ccc(C(=O)N[C@H]6C[C@@H](O)CNC(=O)[C@@H]7[C@@H](O)[C@@H](C)CN7C(=O)[C@H]([C@H](O)CCNC(CO)CO)NC(=O)[C@H]([C@H](O)Cc7ccc(O)c(OS(=O)(=O)O)c7)NC(=O)[C@@H]7C[C@@H](O)CN7C(=O)[C@H]([C@@H](C)O)NC6=O)cc5)nc4s3)cc2)CC1` [Example 4] (X3-[Orn(4R-OH)]T[Hyp][hTyr(3R-OH,3'-OSO3H)][Orn(3R-OH,Nδ-CH(CH2OH)2)][Pro(3S-OH,4S-Me)]; lactam 1-C) showed an MIC of under 0.3 µg/mL.
In the case of `COCCCCCCOc1ccc(-c2cc(-c3ccc(C(=O)N[C@H]4C[C@@H](O)CNC(=O)[C@@H]5[C@@H](O)[C@@H](C)CN5C(=O)[C@H]([C@H](O)CCNC(CO)CO)NC(=O)[C@H]([C@H](O)Cc5ccc(O)c(OS(=O)(=O)O)c5)NC(=O)[C@@H]5C[C@@H](O)CN5C(=O)[C@H]([C@@H](C)O)NC4=O)cc3)no2)cc1` [Example 25] (X1-[Orn(4R-OH)]T[Hyp][hTyr(3R-OH,3'-OSO3H)][Orn(3R-OH,Nδ-CH(CH2OH)2)][Pro(3S-OH,4S-Me)]; lactam 1-C), the MIC is reported as under 0.3 µg/mL.
In the case of `COCCCCOc1ccc(-c2nn3cc(-c4ccc(C(=O)N[C@H]5C[C@@H](O)CNC(=O)[C@@H]6[C@@H](O)[C@@H](C)CN6C(=O)[C@H]([C@H](O)CCNC(CO)CO)NC(=O)[C@H]([C@H](O)Cc6ccc(O)c(OS(=O)(=O)O)c6)NC(=O)[C@@H]6C[C@@H](O)CN6C(=O)[C@H]([C@@H](C)O)NC5=O)cc4)nc3s2)cc1` [Example 30] (X4-[Orn(4R-OH)]T[Hyp][hTyr(3R-OH,3'-OSO3H)][Orn(3R-OH,Nδ-CH(CH2OH)2)][Pro(3S-OH,4S-Me)]; lactam 1-C), the MIC is reported as under 0.3 µg/mL.
`C[C@@H](O)[C@@H]1NC(=O)[C@@H](NC(=O)c2ccc(-c3nnc(-c4ccc(N5CCN([C@H]6CC[C@@H](C)CC6)CC5)cc4)s3)cc2)C[C@@H](O)CNC(=O)[C@@H]2[C@@H](O)[C@@H](C)CN2C(=O)[C@H]([C@H](O)CCNC(CO)CO)NC(=O)[C@H]([C@H](O)Cc2ccc(O)c(OS(=O)(=O)O)c2)NC(=O)[C@@H]2C[C@@H](O)CN2C1=O` [Example 9] (X2-[Orn(4R-OH)]T[Hyp][hTyr(3R-OH,3'-OSO3H)][Orn(3R-OH,Nδ-CH(CH2OH)2)][Pro(3S-OH,4S-Me)]; lactam 1-C) was tested, and the MIC was under 0.3 µg/mL.
